Reference: BigSolDB 2.1

Nc1nc(Cl)c2[nH]cnc2n1
Conditions	solubility (mole fraction)
in 1,4-dioxane, 288.15 K	7.48e-05
in 1,4-dioxane, 293.15 K	9.16e-05
in 1,4-dioxane, 298.15 K	0.000112
in 1,4-dioxane, 303.15 K	0.000135
in 1,4-dioxane, 308.15 K	0.000162
in 1,4-dioxane, 313.15 K	0.000195
in 1,4-dioxane, 318.15 K	0.000236
in 1,4-dioxane, 323.15 K	0.000277
in 1,4-dioxane, 328.15 K	0.000325
in 1,4-dioxane, 333.15 K	0.000396
in 2-butanone, 278.15 K	0.000178
in 2-butanone, 283.15 K	0.000214
in 2-butanone, 288.15 K	0.000256
in 2-butanone, 293.15 K	0.000303
in 2-butanone, 298.15 K	0.000352
in 2-butanone, 303.15 K	0.000408
in 2-butanone, 308.15 K	0.000476
in 2-butanone, 313.15 K	0.000547
in 2-butanone, 318.15 K	0.000626
in 2-butanone, 323.15 K	0.000723
in 2-butanone, 328.15 K	0.00084
in 2-butanone, 333.15 K	0.001
in DMF, 278.15 K	0.00226
in DMF, 283.15 K	0.00266
in DMF, 288.15 K	0.00313
in DMF, 293.15 K	0.00366
in DMF, 298.15 K	0.00427
in DMF, 303.15 K	0.00497
in DMF, 308.15 K	0.00577
in DMF, 313.15 K	0.00668
in DMF, 318.15 K	0.00771
in DMF, 323.15 K	0.00888
in DMF, 328.15 K	0.01
in DMF, 333.15 K	0.0121
in DMSO, 298.15 K	0.0108
in DMSO, 303.15 K	0.0127
in DMSO, 308.15 K	0.015
in DMSO, 313.15 K	0.0172
in DMSO, 318.15 K	0.0204
in DMSO, 323.15 K	0.024
in DMSO, 328.15 K	0.0284
in DMSO, 333.15 K	0.0331
in ethanol, 278.15 K	4.39e-05
in ethanol, 283.15 K	5.42e-05
in ethanol, 288.15 K	6.87e-05
in ethanol, 293.15 K	8.56e-05
in ethanol, 298.15 K	0.000105
in ethanol, 303.15 K	0.000125
in ethanol, 308.15 K	0.000153
in ethanol, 313.15 K	0.000184
in ethanol, 318.15 K	0.000218
in ethanol, 323.15 K	0.000258
in ethanol, 328.15 K	0.000303
in ethanol, 333.15 K	0.000357
in ethylene glycol, 278.15 K	0.000549
in ethylene glycol, 283.15 K	0.000634
in ethylene glycol, 288.15 K	0.000719
in ethylene glycol, 293.15 K	0.000823
in ethylene glycol, 298.15 K	0.000923
in ethylene glycol, 303.15 K	0.00104
in ethylene glycol, 308.15 K	0.00117
in ethylene glycol, 313.15 K	0.0013
in ethylene glycol, 318.15 K	0.00145
in ethylene glycol, 323.15 K	0.0016
in ethylene glycol, 328.15 K	0.00177
in ethylene glycol, 333.15 K	0.00198
in isobutanol, 278.15 K	8.8e-05
in isobutanol, 283.15 K	0.000106
in isobutanol, 288.15 K	0.000131
in isobutanol, 293.15 K	0.000155
in isobutanol, 298.15 K	0.00018
in isobutanol, 303.15 K	0.000211
in isobutanol, 308.15 K	0.000244
in isobutanol, 313.15 K	0.00028
in isobutanol, 318.15 K	0.000325
in isobutanol, 323.15 K	0.000373
in isobutanol, 328.15 K	0.000433
in isobutanol, 333.15 K	0.000499
in isopropanol, 278.15 K	5.99e-05
in isopropanol, 283.15 K	7.43e-05
in isopropanol, 288.15 K	9.38e-05
in isopropanol, 293.15 K	0.000114
in isopropanol, 298.15 K	0.000137
in isopropanol, 303.15 K	0.000165
in isopropanol, 308.15 K	0.000195
in isopropanol, 313.15 K	0.00023
in isopropanol, 318.15 K	0.000266
in isopropanol, 323.15 K	0.000314
in isopropanol, 328.15 K	0.000363
in isopropanol, 333.15 K	0.000431
in methanol, 278.15 K	3.09e-05
in methanol, 283.15 K	3.96e-05
in methanol, 288.15 K	4.94e-05
in methanol, 293.15 K	6.14e-05
in methanol, 298.15 K	7.53e-05
in methanol, 303.15 K	9.43e-05
in methanol, 308.15 K	0.000112
in methanol, 313.15 K	0.000137
in methanol, 318.15 K	0.000168
in methanol, 323.15 K	0.000198
in methanol, 328.15 K	0.000233
in methanol, 333.15 K	0.000279
in n-butanol, 278.15 K	0.000135
in n-butanol, 283.15 K	0.000159
in n-butanol, 288.15 K	0.000185
in n-butanol, 293.15 K	0.00021
in n-butanol, 298.15 K	0.000242
in n-butanol, 303.15 K	0.000276
in n-butanol, 308.15 K	0.000316
in n-butanol, 313.15 K	0.000358
in n-butanol, 318.15 K	0.000409
in n-butanol, 323.15 K	0.000461
in n-butanol, 328.15 K	0.000515
in n-butanol, 333.15 K	0.000586
in n-propanol, 278.15 K	0.000103
in n-propanol, 283.15 K	0.000122
in n-propanol, 288.15 K	0.000149
in n-propanol, 293.15 K	0.000174
in n-propanol, 298.15 K	0.000202
in n-propanol, 303.15 K	0.000234
in n-propanol, 308.15 K	0.000274
in n-propanol, 313.15 K	0.000314
in n-propanol, 318.15 K	0.000362
in n-propanol, 323.15 K	0.00042
in n-propanol, 328.15 K	0.000472
in n-propanol, 333.15 K	0.000539
in water, 278.15 K	3.28e-06
in water, 283.15 K	4.66e-06
in water, 288.15 K	6.53e-06
in water, 293.15 K	9.04e-06
in water, 298.15 K	1.24e-05
in water, 303.15 K	1.68e-05
in water, 308.15 K	2.26e-05
in water, 313.15 K	3e-05
in water, 318.15 K	3.96e-05
in water, 323.15 K	5.17e-05
in water, 328.15 K	6.7e-05
in water, 333.15 K	8.62e-05
